Results as given in the supplement of paper PMC11061612.

Assays:
[1] = compound: CC1=C(C(=CC=C1)Cl)NC(=O)C2=CN=C(S2)NC3=CC(=NC(=N3)C)N4CCN(CC4)CCO [Dasatinib]; conditions: max 2 µM
Outline: (§1)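 Cancer cell lines were seeded into 1536-well plates in 7.5 μl medium (DMEM/F12 or RPMI, 10% FBS), held 24 hours at 37°C and 5% CO2, and dosed for 72 hours with final DMSO typically 0.2%. Luminescence from CellTiter-Glo 2.0, scaled between blank-well and DMSO-well means, served as viability. The single-agent IC50 was obtained from dose-response fits with a non-linear mixed effects model, each fit being a two-parameter logistic curve.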

[2] = compound: Nc1ccn([C@@H]2O[C@H](CO)[C@@H](O)C2(F)F)c(=O)n1 [Gemcitabine]; conditions: max 0.3 µM
Outline: as §1

[3] = compound: COc1cc(Nc2ncc3c(n2)-c2ccc(Cl)cc2C(c2c(F)cccc2OC)=NC3)ccc1C(=O)O [Alisertib]; conditions: max 10 µM
Outline: as §1

[4] = compound: CC1=CN2[C@@H](C1)C=NC3=CC(=C(C=C3C2=O)OC)OCCCCCOC4=C(C=C5C(=C4)N=C[C@@H]6CC(=CN6C5=O)C)OC [SG3199]; conditions: max 0.001 µM
Outline: as §1

[5] = compound: NC1(c2ccc(-c3nc4ccn5c(=O)[nH]nc5c4cc3-c3ccccc3)cc2)CCC1 [MK-2206]; conditions: max 10 µM
Outline: as §1

[6] = compound: CC(=O)O[C@H]1C(=O)[C@@]2(C)[C@H]([C@H](OC(=O)c3ccccc3)[C@]3(O)C[C@H](OC(=O)[C@H](O)[C@@H](NC(=O)c4ccccc4)c4ccccc4)C(C)=C1C3(C)C)[C@]1(OC(C)=O)CO[C@@H]1C[C@@H]2O [Paclitaxel]; conditions: max 3 µM
Outline: as §1

[7] = compound: CC(C)n1c(=O)n(C)c2cnc3cc(F)c(-c4ccc(OCCCN5CCCCC5)nc4)cc3c21 [AZD1390]; conditions: max 0.3 µM
Outline: as §1

[8] = compound: O=C(c1cc(Cc2n[nH]c(=O)c3ccccc23)ccc1F)N1CCN(C(=O)C2CC2)CC1 [Olaparib]; conditions: max 10 µM
Outline: as §1

[9] = compound: COc1cccc2c1C(=O)c1c(O)c3c(c(O)c1C2=O)C[C@@](O)(C(=O)CO)C[C@@H]3O[C@H]1C[C@H](N)[C@H](O)[C@H](C)O1 [Doxorubicin]; conditions: max 1 µM
Outline: as §1

[10] = compound: Cc1c2c(nn1C)CSCc1cc(n(C)n1)CSc1cc(c3ccccc3c1)OCCCc1c(C(=O)O)n(C)c3c-2c(Cl)ccc13 [AZD5991]; conditions: max 1 µM
Outline: as §1

[11] = compound: Cn1cnc2c(F)c(Nc3ccc(Br)cc3Cl)c(C(=O)NOCCO)cc21 [Selumetinib]; conditions: max 10 µM
Outline: as §1

[12] = compound: CC1(C)CCC(CN2CCN(c3ccc(C(=O)NS(=O)(=O)c4ccc(NCC5CCOCC5)c([N+](=O)[O-])c4)c(Oc4cnc5[nH]ccc5c4)c3)CC2)=C(c2ccc(Cl)cc2)C1 [Venetoclax]; conditions: max 1 µM
Outline: as §1

[13] = compound: CCc1c2c(nc3ccc(O)cc13)-c1cc3c(c(=O)n1C2)COC(=O)[C@]3(O)CC [SN-38]; conditions: max 0.3 µM
Outline: as §1

[14] = compound: COc1cc2ncnc(Nc3ccc(F)c(Cl)c3)c2cc1OCCCN1CCOCC1 [Gefitinib]; conditions: max 10 µM
Outline: as §1

[15] = compound: COc1nnc2ccc(N3CCC(c4ccc(OCCN5CCN(C)C(=O)[C@H]5C)cc4)CC3)nn12 [AZD5153]; conditions: max 1 µM
Outline: as §1

[16] = compound: O=C(Nc1ccc2[nH]nc(-c3ccncc3)c2c1)[C@@H]1CCN(CC(=O)N2CCN(c3ccc(-c4ncccn4)cc3)CC2)C1; conditions: max 5 µM
Outline: as §1

[17] = compound: COc1cc([C@@H]2c3cc4c(cc3[C@@H](O[C@@H]3O[C@@H]5CO[C@@H](C)O[C@H]5[C@H](O)[C@H]3O)[C@H]3COC(=O)[C@H]23)OCO4)cc(OC)c1O [Etoposide]; conditions: max 10 µM
Outline: as §1

[18] = compound: COc1cccc(OCCCN)c1-c1cc(Nc2cnc(C#N)cn2)n[nH]1 [Prexasertib]; conditions: max 1 µM
Outline: as §1

[19] = compound: CN(C)CCCOc1ccc(-c2ccc3ncc4c(c3c2)n(C2CCOCC2)c(=O)n4C)cn1 [AZD0156]; conditions: max 3 µM
Outline: as §1

[20] = compound: N#Cc1cnc(Nc2cc(NC[C@H]3CNCCO3)c(C(F)(F)F)cn2)cn1 [SRA737]; conditions: max 10 µM
Outline: as §1

[21] = compound: CS(=O)(=O)CCNCc1ccc(-c2ccc3ncnc(Nc4ccc(OCc5cccc(F)c5)c(Cl)c4)c3c2)o1 [Lapatinib]; conditions: max 10 µM
Outline: as §1

[22] = compound: Cc1nc(-c2cn3c(n2)-c2ccc(-c4cnn(C(C)(C)C(N)=O)c4)cc2OCC3)n(C(C)C)n1 [Taselisib]; conditions: max 10 µM
Outline: as §1

[23] = compound: CC(=O)Nc1cccc(-n2c(=O)n(C3CC3)c(=O)c3c(Nc4ccc(I)cc4F)n(C)c(=O)c(C)c32)c1 [Trametinib]; conditions: max 1 µM
Outline: as §1

[24] = compound: CCN(CCO)CCCOc1ccc2c(Nc3cc(CC(=O)Nc4cccc(F)c4)[nH]n3)ncnc2c1 [AZD2811]; conditions: max 1 µM
Outline: as §1

[25] = compound: C=CCn1c(=O)c2cnc(Nc3ccc(N4CCN(C)CC4)cc3)nc2n1-c1cccc(C(C)(C)O)n1 [AZD1775]; conditions: max 3 µM
Outline: as §1

[26] = compound: CN(CC[C@H](CSC1=CC=CC=C1)NC2=C(C=C(C=C2)S(=O)(=O)NC(=O)C3=CC=C(C=C3)N4CCC(CC4)[C@H](C5=CC=CC=C5C6=CC=C(C=C6)Cl)O)S(=O)(=O)C(F)(F)F)CCO [AZD4320]; conditions: max 1 µM
Outline: as §1

[27] = compound: C1CN(CCC1(C(=O)N[C@@H](CCO)C2=CC=C(C=C2)Cl)N)C3=NC=NC4=C3C=CN4 [AZD5363]; conditions: max 10 µM
Outline: as §1

[28] = compound: C[C@@H]1COCCN1C2=NC(=NC(=C2)C3(CC3)[S@](=N)(=O)C)C4=C5C=CNC5=NC=C4 [AZD6738]; conditions: max 10 µM
Outline: as §1

[29] = compound: C1CC(C1)(C(=O)[O-])C(=O)[O-].N.N.[Pt+2] [Carboplatin]; conditions: max 10 µM
Outline: as §1

[30] = compound: O=c1[nH]cc(F)c(=O)[nH]1 [5-Fluorouracil]; conditions: max 20 µM
Outline: as §1

[31] = compound: C[C@@H](c1ccc2nccn2c1)n1nnc2ncc(-c3cnn(C)c3)nc21 [Savolitinib]; conditions: max 1 µM
Outline: as §1

[32] = compound: C[C@@H](Nc1cc(F)cc(F)c1)c1cc(C(=O)N(C)C)cc2c(=O)cc(N3CCOCC3)oc12 [AZD8186]; conditions: max 10 µM
Outline: as §1

[33] = compound: C[C@@H](Oc1cc(-c2cnn(C3CCNCC3)c2)cnc1N)c1c(Cl)ccc(F)c1Cl [Crizotinib]; conditions: max 10 µM
Outline: as §1

[34] = compound: CC(=O)c1c(C)c2cnc(Nc3ccc(N4CCNCC4)cn3)nc2n(C2CCCC2)c1=O [Palbociclib]; conditions: max 10 µM
Outline: as §1

[35] = compound: Cc1cc2ncnn2cc1Nc1ncc2c(n1)n(C1CCOCC1)c(=O)n2C [AZD7648]; conditions: max 10 µM
Outline: as §1

Cell Line	IC50, cell viability 72 h [1] [µM]	IC50, cell viability 72 h [2] [µM]	IC50, cell viability 72 h [3] [µM]	IC50, cell viability 72 h [4] [µM]	IC50, cell viability 72 h [5] [µM]	IC50, cell viability 72 h [6] [µM]	IC50, cell viability 72 h [7] [µM]	IC50, cell viability 72 h [8] [µM]	IC50, cell viability 72 h [9] [µM]	IC50, cell viability 72 h [10] [µM]	IC50, cell viability 72 h [11] [µM]	IC50, cell viability 72 h [12] [µM]	IC50, cell viability 72 h [13] [µM]	IC50, cell viability 72 h [14] [µM]	IC50, cell viability 72 h [15] [µM]	IC50, cell viability 72 h [16] [µM]	IC50, cell viability 72 h [17] [µM]	IC50, cell viability 72 h [18] [µM]	IC50, cell viability 72 h [19] [µM]	IC50, cell viability 72 h [20] [µM]	IC50, cell viability 72 h [21] [µM]	IC50, cell viability 72 h [22] [µM]	IC50, cell viability 72 h [23] [µM]	IC50, cell viability 72 h [24] [µM]	IC50, cell viability 72 h [25] [µM]	IC50, cell viability 72 h [26] [µM]	IC50, cell viability 72 h [27] [µM]	IC50, cell viability 72 h [28] [µM]	IC50, cell viability 72 h [29] [µM]	IC50, cell viability 72 h [30] [µM]	IC50, cell viability 72 h [31] [µM]	IC50, cell viability 72 h [32] [µM]	IC50, cell viability 72 h [33] [µM]	IC50, cell viability 72 h [34] [µM]	IC50, cell viability 72 h [35] [µM]
MRK-nu-1 (Breast Carcinoma)	> 2	0.0957	3.63	> 0.001	> 10	0.00468	> 0.3	> 10	0.629	0.0467	> 10	> 1	0.0352	> 10	> 1	> 5	6.13	0.22	> 3	> 10	> 10	> 10	> 1	0.816	1.66	> 1	> 10	9.31	> 10	18.4	> 1	> 10	> 10	> 10	> 10
NCI-H1435 (Non-Small Cell Lung Carcinoma)	> 2	> 0.3	> 10	> 0.001	> 10	> 3	> 0.3	> 10	> 1	> 1	> 10	> 1	> 0.3	> 10	> 1	> 5	> 10	> 1	> 3	> 10	> 10	> 10	> 1	> 1	> 3	0.621	> 10	> 10	> 10	> 20	> 1	> 10	> 10	> 10	> 10
NCI-H1648 (Lung Adenocarcinoma)	0.373	> 0.3	7.89	> 0.001	9.83	0.0124	> 0.3	> 10	> 1	> 1	> 10	> 1	0.0596	2.34	0.203	> 5	> 10	0.156	> 3	> 10	1.99	0.146	0.0289	> 1	1.31	> 1	9.59	4.85	> 10	> 20	> 1	> 10	8.99	> 10	> 10
NCI-H2009 (Lung Adenocarcinoma)	> 2	> 0.3	8.1	> 0.001	> 10	0.162	> 0.3	> 10	> 1	> 1	> 10	> 1	0.19	> 10	> 1	> 5	> 10	0.846	> 3	> 10	> 10	6.38	0.407	> 1	1.02	> 1	> 10	> 10	> 10	> 20	> 1	> 10	> 10	> 10	> 10
